In ChEMBL document CHEMBL4507267 (2021):

What was measured:
[1] = molecular target: Serine/threonine-protein kinase PAK 1 (Homo sapiens) (UniProt Q13153); settings: Compound concentration 1000.0 nM
[2] = molecular target: Mitogen-activated protein kinase kinase kinase kinase 5 (Homo sapiens) (UniProt Q9Y4K4); settings: Compound concentration 1000.0 nM
[3] = molecular target: Serine/threonine-protein kinase Nek3 (Homo sapiens) (UniProt P51956); settings: Compound concentration 1000.0 nM
[4] = molecular target: BMP-2-inducible protein kinase (Homo sapiens) (UniProt Q9NSY1); settings: Compound concentration 1000.0 nM
[5] = molecular target: G protein-coupled receptor kinase 3 (Homo sapiens) (UniProt P35626); settings: Compound concentration 1000.0 nM
[6] = molecular target: Mitogen-activated protein kinase kinase kinase 11 (Homo sapiens) (UniProt Q16584); settings: Compound concentration 1000.0 nM
[7] = molecular target: Muscarinic acetylcholine receptor M2 (Homo sapiens) (UniProt P08172); settings: Compound concentration 10.0 uM
[8] = tested on: Phosphatidylinositol 4,5-bisphosphate 3-kinase catalytic subunit alpha isoform (Homo sapiens), P42336 [E542K]; settings: Compound concentration 1000.0 nM
[9] = molecular target: Serine/threonine-protein kinase PLK1 (Homo sapiens) (UniProt P53350); settings: Compound concentration 1000.0 nM
[10] = molecular target: 5-hydroxytryptamine receptor 1D (Homo sapiens) (UniProt P28221); settings: Compound concentration 10.0 uM
[11] = molecular target: Casein kinase II subunit alpha (Homo sapiens) (UniProt P68400); settings: Compound concentration 1000.0 nM
[12] = molecular target: Tyrosine-protein kinase SYK (Homo sapiens) (UniProt P43405); settings: Compound concentration 1000.0 nM
[13] = molecular target: Ribosomal protein S6 kinase alpha-3 (Homo sapiens) (UniProt P51812); settings: Compound concentration 1000.0 nM
[14] = molecular target: Serine/threonine-protein kinase TBK1 (Homo sapiens) (UniProt Q9UHD2); settings: Compound concentration 1000.0 nM
[15] = molecular target: BDNF/NT-3 growth factors receptor (Homo sapiens) (UniProt Q16620); settings: Compound concentration 1000.0 nM
[16] = molecular target: cGMP-dependent protein kinase 1 (Homo sapiens) (UniProt Q13976); settings: Compound concentration 1000.0 nM
[17] = molecular target: Dual specificity mitogen-activated protein kinase kinase 5 (Homo sapiens) (UniProt Q13163); settings: Compound concentration 1000.0 nM
[18] = molecular target: Bone morphogenetic protein receptor type-1B (Homo sapiens) (UniProt O00238); settings: Compound concentration 1000.0 nM
[19] = molecular target: Dual specificity protein kinase CLK1 (Homo sapiens) (UniProt P49759); settings: Compound concentration 1000.0 nM
[20] = molecular target: Fibroblast growth factor receptor 4 (Homo sapiens) (UniProt P22455); settings: Compound concentration 1000.0 nM
[21] = tested on: Tyrosine-protein kinase ABL1 (Homo sapiens), P00519 [Y253F]; settings: Compound concentration 1000.0 nM
[22] = molecular target: Serine/threonine-protein kinase D3 (Homo sapiens) (UniProt O94806); settings: Compound concentration 1000.0 nM
[23] = molecular target: Cyclin-dependent kinase 5 (Homo sapiens) (UniProt Q00535); settings: Compound concentration 1000.0 nM
[24] = molecular target: Tyrosine-protein kinase ABL2 (Homo sapiens) (UniProt P42684); settings: Compound concentration 1000.0 nM
[25] = molecular target: cGMP-dependent protein kinase 2 (Homo sapiens) (UniProt Q13237); settings: Compound concentration 1000.0 nM
[26] = molecular target: Tyrosine-protein kinase Fyn (Homo sapiens) (UniProt P06241); settings: Compound concentration 1000.0 nM
[27] = molecular target: Serine/threonine-protein kinase SIK3 (Homo sapiens) (UniProt Q9Y2K2); settings: Compound concentration 1000.0 nM
[28] = molecular target: Mitogen-activated protein kinase kinase kinase 10 (Homo sapiens) (UniProt Q02779); settings: Compound concentration 1000.0 nM
[29] = molecular target: Ephrin type-B receptor 6 (Homo sapiens) (UniProt O15197); settings: Compound concentration 1000.0 nM
[30] = molecular target: GABA-A receptor; anion channel (Rattus norvegicus) (UniProt O09028+P15431+P18506+P18508+P19969+P20236+P23574+P23576+P28471+P28473+P30191+P62813+P63079+P63138+Q91ZM7+Q9ES14); settings: Compound concentration 10.0 uM
[31] = molecular target: Calcium/calmodulin-dependent protein kinase type II subunit alpha (Homo sapiens) (UniProt Q9UQM7); settings: Compound concentration 1000.0 nM
[32] = tested on: Proto-oncogene tyrosine-protein kinase receptor Ret (Homo sapiens), P07949 [V804L]; settings: Compound concentration 1000.0 nM
[33] = molecular target: Tyrosine-protein kinase JAK2 (Homo sapiens) (UniProt O60674); settings: Compound concentration 1000.0 nM
[34] = tested on: Proto-oncogene tyrosine-protein kinase receptor Ret (Homo sapiens), P07949 [V804M]; settings: Compound concentration 1000.0 nM
[35] = molecular target: Hepatocyte growth factor receptor (Homo sapiens) (UniProt P08581); settings: Compound concentration 1000.0 nM
[36] = molecular target: Tyrosine-protein kinase BTK (Homo sapiens) (UniProt Q06187); settings: Compound concentration 1000.0 nM
[37] = molecular target: Serine/threonine-protein kinase PLK4 (Homo sapiens) (UniProt O00444); settings: Compound concentration 1000.0 nM
[38] = molecular target: Ribosomal protein S6 kinase alpha-1 (Homo sapiens) (UniProt Q15418); settings: Compound concentration 1000.0 nM
[39] = molecular target: Rho-associated protein kinase 1 (Homo sapiens) (UniProt Q13464); settings: Compound concentration 1000.0 nM
[40] = molecular target: Dual specificity mitogen-activated protein kinase kinase 7 (Homo sapiens) (UniProt O14733); settings: Compound concentration 1000.0 nM
[41] = molecular target: Phosphatidylinositol 4,5-bisphosphate 3-kinase catalytic subunit gamma isoform (Homo sapiens) (UniProt P48736); settings: Compound concentration 1000.0 nM
[42] = molecular target: Cyclin-dependent kinase 4 (Homo sapiens) (UniProt P11802); settings: Compound concentration 1000.0 nM
[43] = molecular target: D(4) dopamine receptor (Homo sapiens) (UniProt P21917); settings: Compound concentration 10.0 uM
[44] = molecular target: Serine/threonine-protein kinase Nek4 (Homo sapiens) (UniProt P51957); settings: Compound concentration 1000.0 nM

Chain of Phosphatidylinositol 4,5-bisphosphate 3-kinase catalytic subunit alpha isoform (Homo sapiens), P42336 [E542K] (P42336 whole entry E542K, canonical isoform): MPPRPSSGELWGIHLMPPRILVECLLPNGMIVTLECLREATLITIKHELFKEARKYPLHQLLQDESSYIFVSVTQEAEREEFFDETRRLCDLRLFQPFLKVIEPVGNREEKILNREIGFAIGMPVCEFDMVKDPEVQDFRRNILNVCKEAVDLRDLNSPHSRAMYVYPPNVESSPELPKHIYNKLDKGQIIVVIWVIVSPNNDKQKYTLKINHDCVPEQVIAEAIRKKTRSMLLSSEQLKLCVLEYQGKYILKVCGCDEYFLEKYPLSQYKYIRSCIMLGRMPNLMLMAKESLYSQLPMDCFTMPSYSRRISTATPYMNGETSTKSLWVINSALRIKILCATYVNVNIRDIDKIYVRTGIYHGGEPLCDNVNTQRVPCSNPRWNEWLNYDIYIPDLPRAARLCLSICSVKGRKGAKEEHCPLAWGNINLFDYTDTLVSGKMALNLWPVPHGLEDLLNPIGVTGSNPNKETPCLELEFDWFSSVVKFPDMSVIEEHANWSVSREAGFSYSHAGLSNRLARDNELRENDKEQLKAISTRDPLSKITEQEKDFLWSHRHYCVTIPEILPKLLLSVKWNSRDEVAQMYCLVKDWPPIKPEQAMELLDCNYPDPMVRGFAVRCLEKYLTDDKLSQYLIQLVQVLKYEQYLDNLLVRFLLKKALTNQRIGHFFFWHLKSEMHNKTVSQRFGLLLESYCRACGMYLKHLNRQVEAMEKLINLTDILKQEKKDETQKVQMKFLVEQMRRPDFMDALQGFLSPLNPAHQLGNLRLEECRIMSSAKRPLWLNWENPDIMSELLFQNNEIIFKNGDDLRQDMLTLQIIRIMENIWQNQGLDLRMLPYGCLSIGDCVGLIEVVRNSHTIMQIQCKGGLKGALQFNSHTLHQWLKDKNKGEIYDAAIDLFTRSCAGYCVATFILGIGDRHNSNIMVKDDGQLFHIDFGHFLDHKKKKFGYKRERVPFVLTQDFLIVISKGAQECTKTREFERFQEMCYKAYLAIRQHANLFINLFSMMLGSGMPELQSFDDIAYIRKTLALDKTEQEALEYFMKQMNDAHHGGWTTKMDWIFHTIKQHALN
Chain of Hepatocyte growth factor receptor (Homo sapiens) (P08581 whole entry): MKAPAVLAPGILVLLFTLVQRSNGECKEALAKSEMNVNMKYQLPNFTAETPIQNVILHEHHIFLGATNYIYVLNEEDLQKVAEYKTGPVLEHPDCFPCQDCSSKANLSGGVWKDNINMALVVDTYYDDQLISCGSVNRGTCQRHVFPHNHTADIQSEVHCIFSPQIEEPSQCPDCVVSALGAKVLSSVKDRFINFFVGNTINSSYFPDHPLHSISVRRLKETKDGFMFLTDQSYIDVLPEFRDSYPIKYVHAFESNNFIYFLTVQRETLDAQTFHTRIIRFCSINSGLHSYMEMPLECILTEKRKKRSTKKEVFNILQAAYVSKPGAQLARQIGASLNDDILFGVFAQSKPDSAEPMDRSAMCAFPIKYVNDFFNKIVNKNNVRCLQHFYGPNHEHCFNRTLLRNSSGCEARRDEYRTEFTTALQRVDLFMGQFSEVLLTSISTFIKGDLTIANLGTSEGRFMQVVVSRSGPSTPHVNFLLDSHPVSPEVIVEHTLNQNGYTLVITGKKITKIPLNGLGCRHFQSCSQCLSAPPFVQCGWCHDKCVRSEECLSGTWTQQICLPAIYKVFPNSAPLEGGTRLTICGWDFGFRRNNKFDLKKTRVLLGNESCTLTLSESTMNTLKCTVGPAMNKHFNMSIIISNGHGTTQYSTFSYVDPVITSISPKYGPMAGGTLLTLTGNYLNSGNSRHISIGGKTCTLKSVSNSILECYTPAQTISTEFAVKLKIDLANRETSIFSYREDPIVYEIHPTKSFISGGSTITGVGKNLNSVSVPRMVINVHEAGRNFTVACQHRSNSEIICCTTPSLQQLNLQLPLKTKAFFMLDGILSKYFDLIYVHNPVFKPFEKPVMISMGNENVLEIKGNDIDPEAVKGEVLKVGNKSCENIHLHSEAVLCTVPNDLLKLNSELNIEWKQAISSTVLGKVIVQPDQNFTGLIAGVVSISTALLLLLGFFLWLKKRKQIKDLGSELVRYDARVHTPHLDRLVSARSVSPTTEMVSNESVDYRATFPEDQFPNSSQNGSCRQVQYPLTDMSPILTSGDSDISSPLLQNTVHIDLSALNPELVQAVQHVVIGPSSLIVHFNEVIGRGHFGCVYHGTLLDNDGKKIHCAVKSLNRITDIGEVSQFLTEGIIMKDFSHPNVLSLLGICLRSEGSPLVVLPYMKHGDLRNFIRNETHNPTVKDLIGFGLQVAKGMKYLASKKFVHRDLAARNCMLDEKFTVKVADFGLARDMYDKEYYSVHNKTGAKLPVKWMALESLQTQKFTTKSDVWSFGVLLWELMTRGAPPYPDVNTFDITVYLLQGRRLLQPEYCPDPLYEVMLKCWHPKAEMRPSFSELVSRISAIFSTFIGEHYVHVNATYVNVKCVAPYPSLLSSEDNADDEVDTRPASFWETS
Chain of Calcium/calmodulin-dependent protein kinase type II subunit alpha (Homo sapiens) (Q9UQM7 whole entry): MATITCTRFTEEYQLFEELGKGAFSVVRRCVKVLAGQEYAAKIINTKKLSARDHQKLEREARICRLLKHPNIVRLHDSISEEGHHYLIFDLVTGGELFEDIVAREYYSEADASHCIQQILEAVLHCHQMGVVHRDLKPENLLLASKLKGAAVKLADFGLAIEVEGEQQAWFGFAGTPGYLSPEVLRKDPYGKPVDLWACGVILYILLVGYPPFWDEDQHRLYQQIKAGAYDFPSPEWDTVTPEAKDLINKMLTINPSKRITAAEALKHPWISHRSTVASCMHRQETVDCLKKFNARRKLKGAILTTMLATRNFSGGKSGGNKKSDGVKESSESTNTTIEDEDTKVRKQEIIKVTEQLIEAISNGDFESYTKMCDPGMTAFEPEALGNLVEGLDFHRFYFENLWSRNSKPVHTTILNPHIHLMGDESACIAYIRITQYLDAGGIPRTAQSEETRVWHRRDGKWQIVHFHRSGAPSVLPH
Chain of BDNF/NT-3 growth factors receptor (Homo sapiens) (Q16620 32-822 limits assumed): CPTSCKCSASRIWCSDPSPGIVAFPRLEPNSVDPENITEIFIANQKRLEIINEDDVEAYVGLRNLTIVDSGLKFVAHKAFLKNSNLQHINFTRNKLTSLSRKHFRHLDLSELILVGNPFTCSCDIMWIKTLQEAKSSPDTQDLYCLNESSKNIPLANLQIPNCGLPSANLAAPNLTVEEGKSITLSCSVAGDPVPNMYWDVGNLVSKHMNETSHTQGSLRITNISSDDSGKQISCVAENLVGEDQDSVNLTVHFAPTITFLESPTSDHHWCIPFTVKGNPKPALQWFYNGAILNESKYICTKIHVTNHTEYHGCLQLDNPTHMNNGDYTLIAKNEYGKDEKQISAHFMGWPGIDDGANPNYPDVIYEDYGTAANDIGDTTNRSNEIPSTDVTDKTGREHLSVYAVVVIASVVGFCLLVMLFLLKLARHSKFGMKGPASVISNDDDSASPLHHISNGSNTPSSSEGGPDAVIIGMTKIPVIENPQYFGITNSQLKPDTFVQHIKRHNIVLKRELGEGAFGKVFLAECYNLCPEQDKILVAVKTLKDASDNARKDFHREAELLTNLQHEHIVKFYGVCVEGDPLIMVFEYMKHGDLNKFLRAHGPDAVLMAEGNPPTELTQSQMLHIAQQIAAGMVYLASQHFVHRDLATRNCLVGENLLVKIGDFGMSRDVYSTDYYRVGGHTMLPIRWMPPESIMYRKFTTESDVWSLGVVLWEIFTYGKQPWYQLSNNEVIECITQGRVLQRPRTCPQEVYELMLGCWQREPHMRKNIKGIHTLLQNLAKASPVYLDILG
Chain of Ribosomal protein S6 kinase alpha-1 (Homo sapiens) (Q15418 whole entry): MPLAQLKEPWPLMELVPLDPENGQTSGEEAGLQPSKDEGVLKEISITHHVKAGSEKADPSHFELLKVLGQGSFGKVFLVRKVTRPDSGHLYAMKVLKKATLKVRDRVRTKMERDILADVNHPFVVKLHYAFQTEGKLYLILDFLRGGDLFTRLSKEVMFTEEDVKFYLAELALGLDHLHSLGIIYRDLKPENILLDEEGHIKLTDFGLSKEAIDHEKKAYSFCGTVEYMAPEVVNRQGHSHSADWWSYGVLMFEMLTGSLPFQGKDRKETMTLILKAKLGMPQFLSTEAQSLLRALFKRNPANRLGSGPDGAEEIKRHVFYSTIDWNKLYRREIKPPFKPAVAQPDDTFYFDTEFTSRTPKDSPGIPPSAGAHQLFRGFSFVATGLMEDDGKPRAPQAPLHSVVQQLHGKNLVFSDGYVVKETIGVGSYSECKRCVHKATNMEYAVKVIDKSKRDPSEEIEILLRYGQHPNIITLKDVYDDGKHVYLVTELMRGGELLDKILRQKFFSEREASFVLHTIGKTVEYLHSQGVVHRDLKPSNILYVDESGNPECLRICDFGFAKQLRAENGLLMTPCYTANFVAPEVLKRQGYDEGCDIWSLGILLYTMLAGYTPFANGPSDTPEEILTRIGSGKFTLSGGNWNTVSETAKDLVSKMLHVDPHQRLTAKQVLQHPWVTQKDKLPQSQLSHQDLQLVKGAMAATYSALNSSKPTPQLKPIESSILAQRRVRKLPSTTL
Chain of Muscarinic acetylcholine receptor M2 (Homo sapiens) (P08172 whole entry, canonical isoform): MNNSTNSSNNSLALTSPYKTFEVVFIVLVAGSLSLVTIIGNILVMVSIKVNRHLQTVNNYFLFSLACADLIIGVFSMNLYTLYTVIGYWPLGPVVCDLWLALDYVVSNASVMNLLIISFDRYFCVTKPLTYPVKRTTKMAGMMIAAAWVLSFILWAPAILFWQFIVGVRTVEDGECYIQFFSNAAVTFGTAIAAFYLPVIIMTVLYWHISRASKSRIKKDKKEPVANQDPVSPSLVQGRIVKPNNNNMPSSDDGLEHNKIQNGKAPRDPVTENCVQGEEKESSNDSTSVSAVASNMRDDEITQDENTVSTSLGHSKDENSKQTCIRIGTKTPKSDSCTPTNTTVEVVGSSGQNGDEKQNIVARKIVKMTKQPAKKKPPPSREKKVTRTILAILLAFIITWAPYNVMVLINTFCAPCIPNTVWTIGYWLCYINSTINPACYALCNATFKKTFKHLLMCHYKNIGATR

Cc1c(NC(=O)c2cc(C(N)=O)nc3cc(F)ccc23)c(C(F)(F)F)nn1Cc1ccc(C(C)(C)C)cc1 [BAY-588]
residual activity [1]: 98% | residual activity [2]: 92% | residual activity [3]: 100% | residual activity [4]: 100% | residual activity [5]: 100% | residual activity [6]: 100% | inhibition [7]: 15.3% | residual activity [8]: 43% | residual activity [9]: 99% | inhibition [10]: -4.9% | residual activity [11]: 100% | residual activity [12]: 90% | residual activity [13]: 100% | residual activity [14]: 95% | residual activity [15]: 100% | residual activity [16]: 99% | residual activity [17]: 78% | residual activity [18]: 82% | residual activity [19]: 62% | residual activity [20]: 100% | residual activity [21]: 100% | residual activity [22]: 100% | residual activity [23]: 76% | residual activity [24]: 87% | residual activity [25]: 100% | residual activity [26]: 100% | residual activity [27]: 91% | residual activity [28]: 78% | residual activity [29]: 100% | inhibition [30]: 9.54% | residual activity [31]: 89% | residual activity [32]: 83% | residual activity [33]: 100% | residual activity [34]: 100% | residual activity [35]: 100% | residual activity [36]: 100% | residual activity [37]: 100% | residual activity [38]: 100% | residual activity [39]: 100% | residual activity [40]: 100% | residual activity [41]: 100% | residual activity [42]: 100% | inhibition [43]: 4.93% | residual activity [44]: 100%

Cc1c(NC(=O)c2cc(C(N)=O)nc3cc(F)ccc23)c(C(F)(F)F)nn1Cc1ccc(C#N)cc1 [BAY-876]
residual activity [1]: 100% | residual activity [2]: 74% | residual activity [3]: 74% | residual activity [4]: 96% | residual activity [5]: 89% | residual activity [6]: 100% | inhibition [7]: 25.8% | residual activity [8]: 84% | residual activity [9]: 88% | inhibition [10]: 6.11% | residual activity [11]: 78% | residual activity [12]: 95% | residual activity [13]: 87% | residual activity [14]: 70% | residual activity [15]: 54% | residual activity [16]: 100% | residual activity [17]: 88% | residual activity [18]: 77% | residual activity [19]: 86% | residual activity [20]: 100% | residual activity [21]: 80% | residual activity [22]: 74% | residual activity [23]: 100% | residual activity [24]: 74% | residual activity [25]: 74% | residual activity [26]: 94% | residual activity [27]: 81% | residual activity [28]: 92% | residual activity [29]: 75% | inhibition [30]: 2.64% | residual activity [31]: 100% | residual activity [32]: 100% | residual activity [33]: 75% | residual activity [34]: 100% | residual activity [35]: 100% | residual activity [36]: 70% | residual activity [37]: 100% | residual activity [38]: 78% | residual activity [39]: 97% | residual activity [40]: 79% | residual activity [41]: 80% | residual activity [42]: 81% | inhibition [43]: 15.1% | residual activity [44]: 92%
